Results reported in patent US11827628B2, “Compositions and methods for inhibition of the JAK pathway” (Rigel Pharmaceuticals, Inc., priority 2005, dated 2023).
Where two headings read alike, the source gives them in different places.

Key:
Primary human T-cells = assay: Primary Human T-Cell Proliferation Assay Stimulated with IL-2 (CellTiter-Glo); type: cell-based; conditions: read-out: IC50, Example 42
Method in brief: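 Peripheral blood T-cells pre-activated with anti-CD3/anti-CD28 and IL-2 were washed free of IL-2, then cultured with compound plus IL-2 for 72 hours at 37° C, duplicate wells. Viability read as ATP by CellTiter-Glo luminescence; IC50 reported.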

[1] = system: up-regulation of ICAM-1 (CD54) by IFNγ in A549 lung epithelial cells; assay: A549 Epithelial Line Stimulated with IFNγ (ICAM-1 surface expression, FACS); type: cell-based, human; conditions: ICAM-1 expression by FACS, read-out: IC50, Example 43
Method in brief: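 A549 cells pre-incubated 1 h with compound (30 μM to 14 nM, 5% FBS, 0.3% DMSO), then stimulated with IFNγ (75 ng/mL) for 24 h. Surface ICAM-1 stained with APC anti-CD54 and read by flow cytometry; geometric mean of live-gated events plotted against concentration for EC50.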

[2] = Homo sapiens, T-cell, primary human T-cell proliferation stimulated with IL-2
[3] = Homo sapiens, A549, A549 epithelial line stimulated with IFNγ
[4] = primary human T-cells stimulated with IL-2, proliferation
[5] = A549 cells stimulated with IFNγ
[6] = Homo sapiens, T-cell, primary human T-cells stimulated with IL-2, proliferation
[7] = Homo sapiens, A549, A549 cells stimulated with IFNγ

IC50 [1, 3] | SMILES | IC50 (Primary human T-cells; [2]) | also measured
3.52 µM | Cc1cnc(Nc2ccc(Cl)c(S(N)(=O)=O)c2)nc1Nc1ccc(CCC#N)cc1 [III-12, N2-(3-Aminosulfonyl-4-chlorophenyl)-N4-[4-(2-cyanoethyl)phenyl]-5-methyl-2,4-pyrimidinediamine] | 107 nM | 
10.6 µM | Cc1ccc(Nc2ncc(F)c(NCCc3ccc(-n4ccnc4)cc3)n2)cc1S(N)(=O)=O [III-88, N2-(3-Aminosulfonyl-4-methylphenyl)-5-fluoro-N4-[4-(1-imidazolyl)phenethyl]-2,4-pyrimidinediamine] | 166 nM | 
25.5 µM | CNC(=O)OCCc1ccc(Nc2nc(Nc3cccc(S(N)(=O)=O)c3)ncc2F)cc1 [III-60, N2-(3-Aminosulfonylphenyl)-5-fluoro-N4-{4-[2-(methylaminocarbonyloxy)ethyl]phenyl}-2,4-pyrimidinediamine] | 178 nM | 
6.64 µM | Cc1cc(Nc2nc(Nc3cccc(S(N)(=O)=O)c3)ncc2F)ccc1CCC#N [III-20, N2-(3-Aminosulfonylphenyl)-N4-[4-(2-cyanoethyl)-3-methylphenyl]-5-fluoro-2,4-pyrimidinediamine] | 763 nM | 
76.2 µM | NS(=O)(=O)c1cccc(Nc2ncc(F)c(NCCc3ccc(-n4ccnc4)cc3)n2)c1 [III-87, N2-(3-Aminosulfonylphenyl)-5-fluoro-N4-[4-(1-imidazolyl)phenethyl]-2,4-pyrimidinediamine] | 142 nM | 

Second part, the molecule before the results:

SMILES | IC50 [1, 3] | IC50 (Primary human T-cells; [2]) | also measured
Cc1ccc(Nc2ncc(C)c(Nc3ccc(OCC(=O)N(C)C)c(F)c3)n2)cc1S(N)(=O)=O [Compound I-139, N2-(3-Aminosulfonyl-4-methylphenyl)-N4-(4-dimethylaminocarbonylmethoxy-3-fluorophenyl)-5-methyl-2,4-pyrimidinediamine] | 11.6 µM | 240 nM | 
Cc1ccc(Nc2ncc(C)c(Nc3ccc(OCC#N)cc3)n2)cc1S(N)(=O)=O [Compound I-59, N2-(3-Aminosulfonyl-4-methylphenyl)-N4-(4-cyanomethoxyphenyl)-5-methyl-2,4-pyrimidinediamine] | 0.947 µM | 24.9 nM | 
COc1ccc(Nc2nc(Nc3cccc(S(=O)(=O)NN4CCC(C)CC4)c3)ncc2F)cc1Cl [VI-9, N4-(3-Chloro-4-methoxyphenyl)-5-fluoro-N2-[3-(4-methylpipendin-1-yl)aminosulfonylphenyl]-2,4-pyrimidinediamine] |  |  | IC50 (Primary human T-cells; [4]): 945 nM; IC50 [1, 5]: 9.96 µM
Cc1cnc(Nc2cccc(S(N)(=O)=O)c2)nc1Nc1ccc(OCC#N)cc1 [Compound I-58, N2-(3-Aminosulfonylphenyl)-N4-(4-cyanomethoxyphenyl)-5-methyl-2,4-pyrimidinediamine] | 0.73 µM | 19.2 nM | 
Cc1ccc(Nc2ncc(F)c(Nc3ccc(Oc4cccnc4)cc3)n2)cc1S(N)(=O)=O [II-12, N2-(3-Aminosulfonyl-4-methylphenyl)-5-fluoro-N4-[4-(3-pyridyloxy)phenyl]-2,4-pyrimidinediamine] | 5.52 µM | 409 nM | 
COC(=O)c1ccc(Nc2nc(Nc3ccc(F)c(S(N)(=O)=O)c3)ncc2F)s1 [IX-48, N2-(3-Aminosulfonyl-4-fluorophenyl)-5-fluoro-N4-(5-methoxycarbonyl-thiophene-2-yl)-2,4-pyrimidinediamine] |  |  | IC50 (Primary human T-cells; [6]): 2620 nM; IC50 [1, 7]: 9.56 µM
NS(=O)(=O)c1ccc(Nc2ncc(F)c(Nc3ccc(OCCN4CCOCC4)cc3)n2)cc1 [Compound I-205, N2-(4-Aminosulfonylphenyl)-5-fluoro-N4-[4-(2-morpholinoethyloxy)phenyl)-2,4-pyrimidinediamine] | 9.49 µM | 1860 nM | 
Cc1noc(CCc2ccc(Nc3nc(Nc4cccc(S(N)(=O)=O)c4)ncc3F)cc2)n1 [III-106, N2-(3-Aminosulfonylphenyl)-5-fluoro-N4-[4-(3-methyl-1,2,4-oxadiazol-5-yl)ethylenephenyl]-2,4-pyrimidinediamine] |  |  | IC50 (Primary human T-cells; [4]): 75.1 nM; IC50 [1, 5]: 5.9 µM
Cc1ccc(Nc2ncc(C)c(Nc3ccc(OCC(N)=O)cc3)n2)cc1S(N)(=O)=O [Compound I-110, N4-(4-Aminocarbonylmethoxyphenyl)-N2-(3-aminosulfonyl-4-methylphenyl)-5-methyl-2,4-pyrimidinediamine] | 20.6 µM | 253 nM | 
COc1ccc(CN2C(=O)C(C)Oc3ccc(Nc4nc(Nc5ccc(S(N)(=O)=O)cc5)ncc4F)cc32)cc1 (racemic) [Compound V-4, Racemic N2-(4-Aminosulphonylphenyl)-5-fluoro-N4-[2-methyl-3-oxo-4-(4-methoxybenzyl)-benz[1,4]oxazin-6-yl]-2,4-pyrimidinediamine] |  |  | IC50 (Primary human T-cells; [4]): 1540 nM; IC50 [1, 5]: 9.24 µM
Cc1cc(COc2ccc(Nc3nc(Nc4cccc(S(=O)(=O)NCc5oc(=O)oc5C)c4)ncc3F)cc2)no1 [Compound I-247, N2-{3-[(N-5-Methyl-1,3-dioxolene-2-one-4-yl)methylene]aminosulfonylphenyl}-5-fluoro-N4-[4-(5-methylisoxazol-3-yl)methyleneoxyphenyl]-2,4-pyrimidinediamine] | 11.1 µM | 119 nM | 
Cc1cnc(Nc2cccc(S(N)(=O)=O)c2)nc1Nc1ccc(OCC(=O)N(C)C)c(F)c1 [Compound I-138, N2-(3-Aminosulfonylphenyl)-N4-(4-dimethylaminocarbonylmethoxy-3-fluorophenyl)-5-methyl-2,4-pyrimidinediamine] | 91.5 µM | 223 nM | 
Cc1cc2ccc(CNc3nc(Nc4cccc(S(N)(=O)=O)c4)ncc3F)cc2[nH]1 [Compound X-3] |  |  | IC50 (Primary human T-cells; [6]): 1090 nM; IC50 [1, 7]: 4.98 µM
Cc1ccc(Nc2ncc(C)c(Nc3ccc(OCC(=O)N(C)C)c(Cl)c3)n2)cc1S(N)(=O)=O [Compound I-136, N2-(3-Aminosulfonyl-4-methylphenyl)-N4-(3-chloro-4-dimethylaminocarbonylmethoxyphenyl)-5-methyl-2,4-pyrimidinediamine] | 8.11 µM | 196 nM | 
Cc1cnc(Nc2cccc(S(N)(=O)=O)c2)nc1Nc1ccc(OCC(N)=O)cc1 [Compound I-109, N4-(4-Aminocarbonylmethoxyphenyl)-N2-(3-aminosulfonylphenyl)-5-methyl-2,4-pyrimidinediamine] | 26 µM | 203 nM | 
Cc1ccc(Nc2nc(Nc3cccc(S(N)(=O)=O)c3)ncc2F)cc1OCCN1CCOCC1 [Compound I-203, N2-(3-Aminosulfonylphenyl)-5-fluoro-N4-[4-methyl-3-(2-morpholinoethyloxy)phenyl]-2,4-pyrimidinediamine] | 5.77 µM | 684 nM | 
NC(=O)COc1ccc(Nc2nc(Nc3cccc(S(N)(=O)=O)c3)ncc2F)cc1F [Compound I-101, N4-(4-Aminocarbonylmethoxy-3-fluorophenyl)-N2-(3-aminosulfonylphenyl)-5-fluoro-2,4-pyrimidinediamine] | 51.2 µM |  | 
CNS(=O)(=O)c1cc(Nc2ncc(F)c(Nc3cccc(-c4cnco4)c3)n2)ccc1C [IV-4, 5-Fluoro-N2-[3-(N-methylaminosulfony)-4-methylphenyl]-N4-[3-(1,3-oxazol-5-yl)phenyl]-2,4-pyrimidinediamine] |  |  | IC50 (Primary human T-cells; [4]): 303 nM
Cc1ccc(Nc2ncc(F)c(Nc3ccc(OC4CCN(C)CC4)c(C(F)(F)F)c3)n2)cc1S(N)(=O)=O [II-6, N2-(3-Aminosulfonyl-4-methylphenyl)-5-fluoro-N4-{4-[(1-methylpiperidin-4-yl)oxy]-3-trifluoromethylphenyl}-2,4-pyrimidinediamine] |  | 1220 nM | 
NC(=O)COc1ccc(Nc2nc(Nc3cccc(S(N)(=O)=O)c3)ncc2F)cc1Cl [Compound I-98, N4-(4-Aminocarbonylmethoxy-3-chlorophenyl)-N2-(3-aminosulfonylphenyl)-5-fluoro-2,4-pyrimidinediamine] | 37.3 µM |  | 
N#CCOc1ccc(Nc2nc(Nc3ccc(S(N)(=O)=O)cc3)ncc2F)cc1F [Compound I-44, N2-(4-Aminosulfonylphenyl)-N4-(4-cyanomethoxy-3-fluorophenyl)-5-fluoro-2,4-pyrimidinediamine] |  | 342 nM | 
Cc1ccc(Nc2ncc(F)c(Nc3cnc4c(c3)OC(C)(C)C(=O)N4CC#N)n2)cc1S(N)(=O)=O [Compound V-14, N2-(3-Aminosulfonyl-4-methylphenyl)-N4-[2,2-dimethyl-3-oxo-4-cyanomethyl-5-pyrid[1,4]oxazin-7-yl]-5-fluoro-2,4-pyrimidinediamine] |  |  | IC50 (Primary human T-cells; [4]): 2590 nM
N#CCCc1ccc(Nc2nc(Nc3cccc(S(N)(=O)=O)c3)ncc2F)cc1Cl [III-22, N2-(3-Aminosulfonylphenyl)-N4-[3-chloro-4-(2-cyanoethyl)phenyl]-5-fluoro-2,4-pyrimidinediamine] |  | 76.1 nM | 
N#CCCc1ccc(Nc2nc(Nc3cccc(S(N)(=O)=O)c3)ncc2F)cc1F [III-18, N2-(3-Aminosulfonylphenyl)-N4-[4-(2-cyanoethyl)-3-fluorophenyl]-5-fluoro-2,4-pyrimidinediamine] |  | 136 nM | 
Cc1cnc(Nc2ccc(S(N)(=O)=O)cc2)nc1Nc1ccc(OCC(N)=O)cc1 [Compound I-108, N4-(4-Aminocarbonylmethoxyphenyl)-N2-(4-aminosulfonylphenyl)-5-methyl-2,4-pyrimidinediamine] |  | 148 nM | 
Cc1ccc(Nc2ncc(F)c(Nc3ccc(OCC(N)=O)c(Cl)c3)n2)cc1S(N)(=O)=O [Compound I-99, N4-(4-Aminocarbonylmethoxy-3-chlorophenyl)-N2-(3-aminosulfonyl-4-methylphenyl)-5-fluoro-2,4-pyrimidinediamine] |  | 148 nM | 
